Data: patent publication US10646591B2, “Imaging agents for imaging protease activity and uses thereof” (The United States of America, as represented by the …, priority 2011, dated 2020)

Experiments:
[1] = tested on: MMP- and αvβ3 integrin receptor-positive U87MG tumor; test: In vivo optical imaging of U87MG tumor-bearing mice; conditions: for fluorescent signals in the tumor over time: 0.5 nmol injected
Method: Female athymic nude mice were supplied from Harlan at 4 to 5 weeks of age. The U87MG tumor model was generated by subcutaneous injection of 5×10^6 cells in Matrigel (BD Biosciences, Sparks, Md.) into the right front flank of female athymic nude mice at a volume of about 80 μl. The mice were then used for optical studies when the tumor volume reached about 300 mm^3. All animal studies were conducted in accordance with the principles and procedures outlined in the Guide for the Care and Use of Laboratory Animals and were approved by the Institutional Animal Care and Use Committee of Clinical Center, NIH.
Optical imaging acquirement and analysis were done using a Maestro 2.10 in vivo imaging system (CRI). […] The molar concentration of each samples were calculated by the sample weight. At 1, 2, 3, and 4 hours post-injection, the mice were subjected to optical imaging using appropriate filters for Cy5.5 and CW800. For the inhibition experiment, MMP inhibitor was intratumorally injected into tumor bearing mice 30 minutes before the imaging agent injection. After image acquisition, spectral unmixing yielded the pseudocolor images of the pure spectrum of respective dyes. Images were normalized and analyzed using Maestro software. For quantitative comparison, regions of interest (ROI) were drawn over tumors and muscle, and the average signal ([…]) for each area was measured. Values were expressed as mean±s.d. for a group of three animals.
It should be noted that only a limited dose of dye-labeled peptide probe like compounds 5 and 7 can be injected for whole body imaging, because of its high fluorescent background from the dye. In contrast, since fluorogenic probes are strongly quenched and a majority of the probe is activated at the target site, higher doses of the imaging agents of the present invention can be injected to enhance the ratio of region-of-interest (ROI) signal of tumor to normal tissue, muscle (T/N), at very early times. After injection, in vivo optical imaging was performed for 4 hours using a small animal imaging system (Maestro 2) equipped with appropriate filters for Cy5.5 and CW800.

[2] = tested on: U87MG tumor; test: Ex vivo biodistribution in U87MG tumor-bearing mice; conditions: 4 hour time point
Method: Ex vivo imaging of excised tumor and organs further confirmed the targeting specificity and activation of the probes (data not shown). At 4 hours post-injection, the mice were sacrificed and major organ tissues and tumors were harvested, and placed on black paper for ex vivo imaging. For quantitative comparison, ROIs were drawn over tumors and the other organs, and the average signal for each area was measured. The results were presented as the average scaled signal from the organs and tumors. Values were expressed as mean±s.d. for a group of three animals.
T/N ratios are illustrated in FIG. 12A. […] After whole-mouse imaging at a 4 hour time point, tumors and organs were carefully removed and the biodistribution of compounds 4 and 6 was evaluated (FIG. 12B).

[3] = tested on: MMP-positive SCC-7 tumor; test: In vivo NIR fluorescence imaging of SCC-7 tumor-bearing mice; conditions: intravenous, imaging for 24 hours, compared to other MMP-Pns and MMPSense 680
Method: Squamous cell carcinoma SCC-7 were cultured in RPMI 1640 medium containing 10% (v/v) fetal bovine serum (Invitrogen, Carlsbad, Calif.) supplemented with penicillin (100 μg/ml) and streptomycin (100 μg/ml) at 37° C. with 5% CO2. The SCC-7 tumor model was developed by subcutaneous injection of 1×10^6 cells into the right front flank of female athymic nude mice (Harlan Laboratories, Indianapolis, Ind.). The mice were used for optical studies when the tumor volume reached about 300 mm^3. […]
Optical image acquisition and analysis were done using a Maestro 2 imaging system (Cambridge Research & Instrumentation, Inc. (CRI), Woburn, Mass.). […] Images were normalized and analyzed by using Maestro software. For quantitative comparison, the regions of interest (ROI) were drawn over tumor (T) and normal tissue (N, muscle), and the average signal (×10^6 photons×cm^−2×s^−1) for each area was measured. […]
The MMP-Pns imaging agents used in Example 2, were then used to create a video image of the activity of MMPs in vivo. […] The MMP-P12 generated strong NIR fluorescence signals as early as 20 to 30 minutes after the probe injection and enabled clear visualization of MMPs in the tumor region thereafter.

[4] = tested on: U87MG cells; test: Fluorescent microscopic study of receptor specificity in fixed U87MG cells; type: cell-based, human
Method: The U87MG cell is known to have high αvβ3 integrin density on the cell surface. […] Next, receptor specificity of the probes in cell culture was verified by fluorescent microscopic studies. […] (data not shown).

Compound: CC1(C)C(/C=C/C2=C(Oc3ccc(S(=O)(=O)O)cc3)C(=C/C=C3/N(CCCCS(=O)(=O)O)c4ccc(S(=O)(=O)O)cc4C3(C)C)/CCC2)=[N+](CCCCCC(=O)NCCCC[C@@H]2NC(=O)[C@@H](Cc3ccc(O)cc3)NC(=O)[C@H](CC(=O)O)NC(=O)CNC(=O)[C@H](CCCNC(=N)N)NC2=O)c2ccc(S(=O)(=O)O)cc21 [compound 7]
- fluorescent signals in the tumor over time [1]: gradually increased

Compound: CCN(CC)c1ccc2nc3ccc(/N=N/c4ccc(N(C)CCCC(=O)NCCCC[C@H](NC(=O)CNC(=O)[C@H](CCCNC(=N)N)NC(=O)[C@@H](NC(=O)CNC(=O)[C@H](CC(C)C)NC(=O)[C@@H]5CCCN5C(=O)CNC(=O)CCCCCN5/C(=C/C=C/C=C/C6=[N+](CC)c7ccc8c(S(=O)(=O)O)cc(S(=O)(=O)[O-])cc8c7C6(C)C)C(C)(C)c6c5ccc5c(S(=O)(=O)O)cc(S(=O)(=O)[O-])cc65)C(C)C)C(=O)NCC(=O)NCC(=O)NCCCC[C@@H]5NC(=O)[C@@H](Cc6ccc(O)cc6)NC(=O)[C@H](CC(=O)O)NC(=O)CNC(=O)[C@H](CCCNC(=N)N)NC5=O)cc4)cc3[n+](-c3ccccc3)c2c1 [compound 4]
- NIR fluorescence signal from the tumor with MMP inhibitor ([1]; MMP inhibitor intratumorally 30 minutes before probe): significantly reduced
- tumor uptake with excess unlabeled c(RGDyK) ([1]; c(RGDyK) 200 nmol, 30 minutes post-injection): effectively blocked
- brightness of NIR fluorescent images ([1]; from 1 hour post-injection): brighter NIR fluorescent images compared to compound 6
- visualization of MMP expression in MMP positive tumor ([1]; intravenous, imaging for 4 hours): enabled visualization of MMP expression
- ex vivo biodistribution (site of activation) [2]: predominantly activated in the tumors

Compound: MMP-P4: Cy5.5-GPLGVRGK(BHQ3)GG-R, R = -NH(CH2CH2O)4H
- onset of activation in vivo, NIR fluorescence in tumor region [3]: early onset of activation in vivo

Compound: CC[N+]1=C(/C=C/C=C/C=C2/N(CCCCCC(=O)NCC(=O)N3CCC[C@H]3C(=O)N[C@@H](CC(C)C)C(=O)NCC(=O)N[C@H](C(=O)N[C@@H](CCCNC(=N)N)C(=O)NCC(=O)N[C@@H](CCCCN)C(=O)NCC(=O)NCC(=O)NCCCC[C@@H]3NC(=O)[C@@H](Cc4ccc(O)cc4)NC(=O)[C@H](CC(=O)O)NC(=O)CNC(=O)[C@H](CCCNC(=N)N)NC3=O)C(C)C)c3ccc4c(S(=O)(=O)O)cc(S(=O)(=O)O)cc4c3C2(C)C)C(C)(C)c2c1ccc1c(S(=O)(=O)O)cc(S(=O)(=O)O)cc21 [compound 5]
- fluorescent signals in the tumor over time [1]: gradually increased
- fluorescent signals on the cell membranes ([4]; 30 minutes of incubation at 37° C.): Strong positive fluorescent signals
- binding with receptor blocking by excess c(RGDyK) ([4]; blocking dose of c(RGDyK) 10 μM): significantly decreased
